Read-outs that look alike come from different tables or passages of the source.
Columns and labels:
Type in all cases: cell-based
Alternaria solani (wt) = conditions: 7 days after inoculation, relative to compound-free control (100%)
Cercospora sojina = conditions: 4 ppm, 7 days after inoculation, relative to compound-free control (100%)
[1] = test system: Alternaria solani (F129L); assay: Micro titer plate test against early blight (ALTESO F129L); conditions: 7 days after inoculation, relative to compound-free control (100%)
Septoria tritici = assay: Micro titer plate test against leaf blotch on wheat (SEPTTR); conditions: 0.25 ppm, 7 days after inoculation, relative to compound-free control (100%)

| Structure (SMILES) | Fungal growth (%) ALTESO wt (Alternaria solani (wt); 0.016 ppm) [%] | Fungal growth (%) CERCSO (Cercospora sojina) [%] | Fungal growth (%) ALTESO F129L ([1]; 0.016 ppm) [%] | Fungal growth (%) SEPTTR (Septoria tritici) [%] | also measured |
| --- | --- | --- | --- | --- | --- |
| CO/N=C(/C(=O)OC)c1cccc(C)c1CO/N=C(\C)c1cccc(OC(F)(F)F)c1 [drawing 936] | 94 | 33 | – | – | – |
| CO/N=C(/C(=O)OC)c1cccc(C)c1CO/N=C(\C)c1cccc(OC(F)(F)F)c1 [drawing 940] | – | – | – | – | Fungal growth (%) ALTESO F129L ([1]; 4 ppm): 87% |
| CNC(=O)/C(=N/OC)c1cccc(C)c1CO/N=C(\OC)c1cccc(C(F)(F)F)c1 [drawing 948] | 100 | – | 87 | 77 | – |
| CNC(=O)/C(=N/OC)c1cccc(C)c1CO/N=C(\OC)c1cccc(C(F)(F)F)c1 [drawing 950] | – | 60 | – | – | – |
| CO/N=C(/C(=O)OC)c1cccc(C)c1CO/N=C(\SC)c1cccc(C)c1 [drawing 952] | – | – | – | 61 | – |
| CO/N=C(/C(=O)OC)c1cccc(C)c1CO/N=C(/c1cccc(C)c1)C1CC1 [drawing 953] | – | – | – | 89 | – |
| CO/N=C(/C(=O)OC)c1cccc(C)c1CO/N=C(\SC)c1cccc(C)c1 [drawing 955] | 67 | 71 | 66 | – | – |
| CO/N=C(/C(=O)OC)c1cccc(C)c1CO/N=C(/c1cccc(C)c1)C1CC1 [drawing 957] | 100 | 87 | 87 | – | – |
| CO/N=C(/C(=O)OC)c1cccc(C)c1CO/N=C(\SC)c1cccc(Cl)c1 [drawing 962] | 94 | – | 100 | 39 | – |
| CO/N=C(/C(=O)OC)c1cccc(C)c1CO/N=C(/c1cccc(Cl)c1)C1CC1 [drawing 963] | 81 | – | 89 | 39 | – |
| CO/N=C(/C(=O)OC)c1cccc(C)c1CO/N=C(\SC)c1cccc(Cl)c1 [drawing 965] | – | 62 | – | – | – |
| CO/N=C(/C(=O)OC)c1cccc(C)c1CO/N=C(/c1cccc(Cl)c1)C1CC1 [drawing 966] | – | 61 | – | – | – |
| CNC(=O)/C(=N/OC)c1cccc(C)c1CO/N=C(\SC)c1cccc(Cl)c1 [drawing 968] | – | – | 90 | 59 | Fungal growth (%) ALTESO wt (Alternaria solani (wt); 0.25 ppm): 43% |
| CNC(=O)/C(=N/OC)c1cccc(C)c1CO/N=C(\SC)c1cccc(Cl)c1 [drawing 970] | – | 78 | – | – | – |
